# Measured values reported in publication PMC7818921, “Synthesis and biological evaluation of heterocyclic 1,2,4-triazole scaffolds as promising pharmacological agents” (BMC Chemistry, 2021).
# System: not given
# Test: not given
# Details: not given
row,Compound,melting point [°C]
1,CCCCCCCCCCCCCCCc1nnc(S)n1N=Cc1ccc(OC)c(O)c1 [Compound T6],189 to 192
2,CCCCCCCCCCCCCCCc1nnc(S)n1N=Cc1ccccc1O [Compound T7],181 to 184
3,CCCCCCCCCCCCCCCc1nnc(S)n1N=Cc1ccc(O)cc1 [Compound T8],192 to 195
4,CCCCCCCCCCCCCCCc1nnc(S)n1N=Cc1ccc(N(C)C)cc1 [Compound T9],198 to 201

# System: Candida albicans
# Test: In vitro antifungal screening, tube dilution method
# Type: cell-based
# Details: Candida albicans; C. albican; Sabouraud dextrose broth, 37 ± 1 °C, 48 h; read-out: Minimum inhibitory concentration
# Experimental: (§1) The in vitro antimicrobial screening of the synthesized 1,2,4-triazole derivatives (T1–T20) in μM was determined against Gram-positive Bacillus subtilis, […], Gram-negative Escherichia coli bacterium and fungal strains Candida albicans and Aspergillus niger by tube dilution method using ciprofloxacin, amoxycillin (antibacterial) and fluconazole (antifungal) as reference drugs. DMSO was used to dissolve the reference and sample derivatives (T1–T20). Dilutions were prepared in nutrient broth (I.P.) for bacterial (incubated at 37 ± 1 °C for 24 h) and Sabouraud dextrose broth (I.P.) for fungal species (37 ± 1 °C for 48 h for C. albicans) and (25 ± 1 °C for 7 days for A. niger) (Table 3, Figs. 4 and 5).
row,Compound,MIC [µM]
1,CCCCCCCCCCCCCCCc1nnc(S)n1N=Cc1ccc(OC)c(O)c1 [Compound T6],108
2,CCCCCCCCCCCCCCCc1nnc(S)n1N=Cc1ccccc1O [Compound T7],232
3,CCCCCCCCCCCCCCCc1nnc(S)n1N=Cc1ccc(O)cc1 [Compound T8],116
4,CCCCCCCCCCCCCCCc1nnc(S)n1N=Cc1ccc(N(C)C)cc1 [Compound T9],109

# System: Aspergillus niger
# Test: as above
# Type: cell-based
# Details: A. niger; Sabouraud dextrose broth, 25 ± 1 °C, 7 days; read-out: Minimum inhibitory concentration
# Experimental: as §1
row,Compound,MIC [µM]
1,CCCCCCCCCCCCCCCc1nnc(S)n1N=Cc1ccc(OC)c(O)c1 [Compound T6],217.0

# Same assay, conditions: Aspergillus niger, 168 h; A. niger; Sabouraud dextrose broth, 25 ± 1 °C, 7 days; read-out: Minimum inhibitory concentration
row,Compound,MIC [µM]
1,CCCCCCCCCCCCCCCc1nnc(S)n1N=Cc1ccc(OC)c(O)c1 [Compound T6],217
2,CCCCCCCCCCCCCCCc1nnc(S)n1N=Cc1ccccc1O [Compound T7],232
3,CCCCCCCCCCCCCCCc1nnc(S)n1N=Cc1ccc(O)cc1 [Compound T8],232
4,CCCCCCCCCCCCCCCc1nnc(S)n1N=Cc1ccc(N(C)C)cc1 [Compound T9],218

# System: not listed separately
# Test: DPPH free radical scavenging activity
# Details: DPPH antioxidant
# Experimental: In the DPPH free radical scavenging activity, compounds (T1–T20) were evaluated for their free radical scavenging activity with ascorbic acid as standard compound. The scavenging effect increased with the increasing concentrations of sample compounds. DPPH is relatively stable nitrogen centered free radical that easily accepts an electron or hydrogen radical to become a stable diamagnetic molecule. DPPH radicals react with suitable reducing agents as a result of which the electrons become paired off forming the corresponding hydrazine. The solution therefore loses colour stoichometrically depending on the number of electrons taken up. […] The sample solutions were incubated for 30 min at room temperature in dark place and after then absorbance was recorded against the blank solution at 517 nm. The relative percent of DPPH scavenging activity was calculated according to the following equation: I%=Acontrol-Asample/Acontrol×100,
# where Acontrol is the absorbance of the control, Asample is the absorbance of the test compound.
row,Compound,IC50 [µg/mL]
1,CCCCCCCCCCCCCCCc1nnc(S)n1N=Cc1ccc(OC)c(O)c1 [Compound T6],45.66
2,CCCCCCCCCCCCCCCc1nnc(S)n1N=Cc1ccccc1O [Compound T7],38.54
3,CCCCCCCCCCCCCCCc1nnc(S)n1N=Cc1ccc(O)cc1 [Compound T8],36.12
4,CCCCCCCCCCCCCCCc1nnc(S)n1N=Cc1ccc(N(C)C)cc1 [Compound T9],35.42

# Same assay, conditions: DPPH, 25 µg/ml
row,Compound,% inhibition [%]
1,CCCCCCCCCCCCCCCc1nnc(S)n1N=Cc1ccc(OC)c(O)c1 [Compound T6],31.67
2,CCCCCCCCCCCCCCCc1nnc(S)n1N=Cc1ccccc1O [Compound T7],46.75
3,CCCCCCCCCCCCCCCc1nnc(S)n1N=Cc1ccc(O)cc1 [Compound T8],43.91
4,CCCCCCCCCCCCCCCc1nnc(S)n1N=Cc1ccc(N(C)C)cc1 [Compound T9],40.56

# Same assay, conditions: DPPH, 50 µg/ml
row,Compound,% inhibition [%]
1,CCCCCCCCCCCCCCCc1nnc(S)n1N=Cc1ccc(OC)c(O)c1 [Compound T6],53.67
2,CCCCCCCCCCCCCCCc1nnc(S)n1N=Cc1ccccc1O [Compound T7],52.56
3,CCCCCCCCCCCCCCCc1nnc(S)n1N=Cc1ccc(O)cc1 [Compound T8],58.67
4,CCCCCCCCCCCCCCCc1nnc(S)n1N=Cc1ccc(N(C)C)cc1 [Compound T9],60.67

# Same assay, conditions: DPPH, 75 µg/ml
row,Compound,% inhibition [%]
1,CCCCCCCCCCCCCCCc1nnc(S)n1N=Cc1ccc(OC)c(O)c1 [Compound T6],77.78
2,CCCCCCCCCCCCCCCc1nnc(S)n1N=Cc1ccccc1O [Compound T7],60.56
3,CCCCCCCCCCCCCCCc1nnc(S)n1N=Cc1ccc(O)cc1 [Compound T8],67.54
4,CCCCCCCCCCCCCCCc1nnc(S)n1N=Cc1ccc(N(C)C)cc1 [Compound T9],83.61

# Same assay, conditions: DPPH, 100 µg/ml
row,Compound,% inhibition [%]
1,CCCCCCCCCCCCCCCc1nnc(S)n1N=Cc1ccc(OC)c(O)c1 [Compound T6],92.67
2,CCCCCCCCCCCCCCCc1nnc(S)n1N=Cc1ccccc1O [Compound T7],70.41
3,CCCCCCCCCCCCCCCc1nnc(S)n1N=Cc1ccc(O)cc1 [Compound T8],82.57
4,CCCCCCCCCCCCCCCc1nnc(S)n1N=Cc1ccc(N(C)C)cc1 [Compound T9],92.16

# System: HCT116 (human colon cancer cells)
# Test: Anticancer evaluation, SRB assay
# Type: cell-based
# Details: Homo sapiens, HCT-116; HCT116, 72 h, SRB; mean of at least triplicates
# Experimental: HCT116 (human colon cancer cells) were seeded at 2500 cells/well (96 well plate), allowed to attach overnight, exposed to the respective compounds for 72 h and subjected to SRB assay (570 nm). Data represent mean IC50 of at least triplicates. The compounds were all dissolved in DMSO as stock of 100 mg/ml. […] The highest concentration of each compound tested (100 μg/ml) contained only 0.1% DMSO.
row,Compound,IC50 [µM]
1,CCCCCCCCCCCCCCCc1nnc(S)n1N=Cc1ccc(OC)c(O)c1 [Compound T6],112
2,CCCCCCCCCCCCCCCc1nnc(S)n1N=Cc1ccccc1O [Compound T7],3.25
3,CCCCCCCCCCCCCCCc1nnc(S)n1N=Cc1ccc(O)cc1 [Compound T8],> 232
4,CCCCCCCCCCCCCCCc1nnc(S)n1N=Cc1ccc(N(C)C)cc1 [Compound T9],> 218

# Same assay, conditions: Homo sapiens, HCT-116; HCT116; value given in dose-response figure
row,Compound,IC50 [µg/mL]
1,CCCCCCCCCCCCCCCc1nnc(S)n1N=Cc1ccccc1O [Compound T7],1.4

# System: Escherichia coli
# Test: In vitro antimicrobial screening, tube dilution method
# Type: cell-based
# Details: E. coli, Gram −ve; nutrient broth, 37 ± 1 °C, 24 h; read-out: Minimum inhibitory concentration
# Experimental: as §1
row,Compound,MIC [µM]
1,CCCCCCCCCCCCCCCc1nnc(S)n1N=Cc1ccc(O)cc1 [Compound T8],58.0

# Same assay, conditions: Escherichia coli; E. coli, Gram −ve; nutrient broth, 37 ± 1 °C, 24 h; read-out: Minimum inhibitory concentration
row,Compound,MIC [µM]
1,CCCCCCCCCCCCCCCc1nnc(S)n1N=Cc1ccc(OC)c(O)c1 [Compound T6],54.2
2,CCCCCCCCCCCCCCCc1nnc(S)n1N=Cc1ccccc1O [Compound T7],116
3,CCCCCCCCCCCCCCCc1nnc(S)n1N=Cc1ccc(O)cc1 [Compound T8],58
4,CCCCCCCCCCCCCCCc1nnc(S)n1N=Cc1ccc(N(C)C)cc1 [Compound T9],54.6

# System: Pseudomonas aeruginosa
# Test: as above
# Type: cell-based
# Details: P. aeruginosa, Gram −ve; nutrient broth, 37 ± 1 °C, 24 h; read-out: Minimum inhibitory concentration
# Experimental: as §1
row,Compound,MIC [µM]
1,CCCCCCCCCCCCCCCc1nnc(S)n1N=Cc1ccccc1O [Compound T7],29.0
2,CCCCCCCCCCCCCCCc1nnc(S)n1N=Cc1ccc(O)cc1 [Compound T8],58.0

# Same assay, conditions: Pseudomonas aeruginosa; P. aeruginosa, Gram −ve; nutrient broth, 37 ± 1 °C, 24 h; read-out: Minimum inhibitory concentration
row,Compound,MIC [µM]
1,CCCCCCCCCCCCCCCc1nnc(S)n1N=Cc1ccc(OC)c(O)c1 [Compound T6],54.2
2,CCCCCCCCCCCCCCCc1nnc(S)n1N=Cc1ccccc1O [Compound T7],29
3,CCCCCCCCCCCCCCCc1nnc(S)n1N=Cc1ccc(O)cc1 [Compound T8],58
4,CCCCCCCCCCCCCCCc1nnc(S)n1N=Cc1ccc(N(C)C)cc1 [Compound T9],27.3

# System: Bacillus subtilis
# Test: as above
# Type: cell-based
# Details: Bacillus subtilis; B. substilis, Gram +ve; nutrient broth, 37 ± 1 °C, 24 h; read-out: Minimum inhibitory concentration
# Experimental: as §1
row,Compound,MIC [µM]
1,CCCCCCCCCCCCCCCc1nnc(S)n1N=Cc1ccc(OC)c(O)c1 [Compound T6],108
2,CCCCCCCCCCCCCCCc1nnc(S)n1N=Cc1ccccc1O [Compound T7],116
3,CCCCCCCCCCCCCCCc1nnc(S)n1N=Cc1ccc(O)cc1 [Compound T8],116
4,CCCCCCCCCCCCCCCc1nnc(S)n1N=Cc1ccc(N(C)C)cc1 [Compound T9],54.6

# Biological target: Jack Bean Urease (Canavalia ensiformis, UniProt P07374)
# Test: biochemical
# Details: not given
# Experimental: Urease inhibitory potential for each synthesisized compound (T1–T20) was evaluated using Jack Bean Urease by Indophenol method (Table 5, Figs. 9, 10, 11). 250 µl of jack bean urease (4U) was mixed with 250 µl of different synthesized test compounds and standard of different concentrations [dissolved in DMSO/H2O mixture (1:1 v/v)]. The mixture was pre-incubated for 1 h at 37 °C in test tubes. 2 ml of 100 mM phosphate buffer (pH 6.8) containing 500 mM urea and 0.002% phenol red as an indicator were added in sample test tubes after pre incubation and again incubated at room temperature. Absorbance of reaction mixture was recorded by ELISA at 570 nm. Ammonium carbonate increased the pH of phosphate buffer from 6.8 to 7.7 which was produced from urea by urease enzyme and the end peak was measured by the colour of phenol red indicator [16].
# The percentage inhibition of urease enzyme was calculated by using following formula: I%=Acontrol-Asample/Acontrol×100,
# where Acontrol is the absorbance of the control; Asample is the absorbance of the test compound.
# Jack Bean Urease, sequence (P07374 whole entry, looked up): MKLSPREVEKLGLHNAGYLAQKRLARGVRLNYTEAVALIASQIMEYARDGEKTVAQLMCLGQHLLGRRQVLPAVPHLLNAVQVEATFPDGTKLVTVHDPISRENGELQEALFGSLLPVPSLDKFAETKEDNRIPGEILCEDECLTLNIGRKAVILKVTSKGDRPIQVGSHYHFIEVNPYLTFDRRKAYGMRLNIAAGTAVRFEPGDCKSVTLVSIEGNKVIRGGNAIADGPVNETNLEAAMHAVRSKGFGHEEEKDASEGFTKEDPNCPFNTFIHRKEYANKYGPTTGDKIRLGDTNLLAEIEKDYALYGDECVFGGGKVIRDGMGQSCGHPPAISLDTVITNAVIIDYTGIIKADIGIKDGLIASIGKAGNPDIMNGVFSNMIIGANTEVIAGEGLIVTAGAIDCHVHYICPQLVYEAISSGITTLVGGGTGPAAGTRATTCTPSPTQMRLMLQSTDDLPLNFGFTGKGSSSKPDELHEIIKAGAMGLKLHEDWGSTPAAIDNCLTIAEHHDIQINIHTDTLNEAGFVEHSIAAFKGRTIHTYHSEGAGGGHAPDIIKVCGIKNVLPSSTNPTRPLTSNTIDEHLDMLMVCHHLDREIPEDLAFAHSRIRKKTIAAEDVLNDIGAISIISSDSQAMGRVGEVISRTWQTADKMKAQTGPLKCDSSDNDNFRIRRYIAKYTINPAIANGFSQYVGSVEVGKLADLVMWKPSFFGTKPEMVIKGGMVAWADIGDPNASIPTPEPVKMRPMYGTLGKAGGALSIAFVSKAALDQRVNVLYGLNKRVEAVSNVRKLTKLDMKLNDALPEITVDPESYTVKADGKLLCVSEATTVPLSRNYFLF
Compound,IC50 [µM],inhibition at 25 µg/mL [%],inhibition at 50 µg/mL [%],inhibition at 75 µg/mL [%],inhibition at 100 µg/mL [%]
CCCCCCCCCCCCCCCc1nnc(S)n1N=Cc1ccc(OC)c(O)c1 [Compound T6],102,38.5,50.3,65.6,80.9
CCCCCCCCCCCCCCCc1nnc(S)n1N=Cc1ccccc1O [Compound T7],121,24,46.9,76.1,91.9
CCCCCCCCCCCCCCCc1nnc(S)n1N=Cc1ccc(O)cc1 [Compound T8],131,22.4,39.6,68.6,92.7
CCCCCCCCCCCCCCCc1nnc(S)n1N=Cc1ccc(N(C)C)cc1 [Compound T9],–,33.5,53.7,70.5,92.7
